Measured values as given in patent publication US20040002425A1, “Triketone derivatives and herbicides” (Idemitsu Kosan Co., Ltd., priority 1998, published 2004).

Test system: Transplanted paddy rice plant
Assay: Biological Test 1 (treatment on the 3rd day after transplantation): chemical injury to paddy rice
Assay type: in vivo
Set-up: scale not given here
Conditions: Treatment performed 3 days after transplantation
Method: (1) Preparation of Herbicide
Talc (57 parts by weight) and bentonite (40 parts by weight), both serving as carriers, and sodium alkylbenzenesulfate (3 parts by weight) serving as a surfactant were homogeneously ground and mixed to thereby obtain a carrier for water-dispersible powder.
Subsequently, to the water-dispersible powder (90 parts by weight), the triketone derivative (compound No. A-1) produced in Example I-1 (10 parts by weight) was added, and the resultant mixture was homogeneously ground and mixed to thereby obtain a herbicide.
(i) Biological Test 1 (Soaking in Water/Treatment on the 3rd Day After Transplantation)
A Wagner pot (1/2000 are) was filled with paddy soil, and seeds of barnyard grass were planted on the surface layer of the soil, and further, rice seedlings grown to the 2.5-leaf stage were transplanted.
Subsequently, water was poured in the pot to a height of 3 cm above the soil surface, and placed in a greenhouse where the temperature was maintained at 20-25° C., to thereby grow the plant under suitable conditions.
On the 3rd day after transplantation, the herbicide prepared in (1) above was applied to the plant in a predetermined amount. On the 30th day after treatment with the herbicide, weed-killing ratio, herbicidal effect, and extent of chemical injury to paddy rice were examined.
In Biological tests 1 and 2, herbicidal effect and extent of chemical injury were evaluated according to the below-described standards.
3) Chemical Injury to Paddy Rice
Chemical injury to paddy rice was evaluated according to the following criteria.

[1] = dose 100 g/ha, examined on the 30th day after treatment
[2] = dose 200 g/ha, examined on the 30th day after treatment

Row | SMILES | Chemical injury, Transplanted paddy rice plant (dose 100 g/ha) | Chemical injury, Transplanted paddy rice plant (dose 200 g/ha) | Chemical injury, Transplanted paddy rice plant [1] | Chemical injury, Transplanted paddy rice plant [2]
1 | CC(C)(C)SC1=C(C(=O)c2ccc3c(c2Cl)CCS3(=O)=O)C(=O)CCC1 [B-23] | 0 | 0 | – | –
2 | Cc1c(C(=O)C2=C(Cl)CCCC2=O)ccc2c1C(=O)C(C)(C)CS2(=O)=O [B-63] | 3 | 5 | – | –
3 | CC1(C)CCC(O)=C(C(=O)c2ccc3c(c2Cl)CCS3(=O)=O)C1=O [A-8, 4-chloro-5-(4,4-dimethyl-1,3-dioxocyclohexan-2-yl)carbonyl-2,3-dihydrobenzothiophene-1,1-dioxide] | – | – | 1 | 3
4 | Cc1cc(C(=O)C2=C(O)CCCC2=O)c(C)c2c1S(=O)(=O)CC2 [A-4, 4,7-dimethyl-5-(1,3-dioxocyclohexan-2-yl)carbonyl-2,3-dihydrobenzothiophene-1,1-dioxide] | – | – | 0 | 1
5 | CO/N=C1\CCS(=O)(=O)c2c(C)cc(C(=O)C3=C(Nc4ccc(C)cc4)CCCC3=O)c(C)c21 [B-58, 4-methoxyimino-5,8-dimethyl-6-[3-(4-methylphenyl)amino-1-oxocyclohexan-2-yl]carbonylthiochroman-1,1-1,1-dioxide] | 0 | 0 | – | –
6 | O=C1CCCC(S(=O)(=O)c2ccc(Br)cc2)=C1C(=O)c1ccc2c(c1Cl)CCS2(=O)=O [B-42] | 0 | 0 | – | –
7 | Cc1c(C(=O)C2=C(O)CCCC2=O)ccc2c1CCS2(=O)=O [A-2, 4-methyl-5-(1,3-dioxocyclohexan-2-yl)carbonyl-2,3-dihydrobenzothiophene-1,1-dioxide] | – | – | 0 | 0
8 | Cc1cccc(SC2=C(C(=O)c3ccc4c(c3Cl)CCS4(=O)=O)C(=O)CCC2)c1 [B-15, 4-chloro-5-[3-(3-methylphenyl)thio-1-oxocyclohexan-2-yl]carbonyl-2,3-dihydrobenzothiophene-1,1-dioxide] | 0 | 0 | – | –
9 | C=CCSC1=C(C(=O)c2ccc3c(c2Cl)CCS3(=O)=O)C(=O)CCC1 [B-22, 4-chloro-5-[3-(3-propenyl)thio-1-oxocyclohexan-2-yl]carbonyl-2,3-dihydrobenzothiophene-1,1-dioxide] | 0 | 0 | – | –
10 | O=C1CCCC(S(=O)(=O)c2ccccc2O)=C1C(=O)c1ccc2c(c1Cl)CCS2(=O)=O [B-49] | 0 | 0 | – | –
11 | CO/N=C1\CCS(=O)(=O)c2c(C)cc(C(=O)C3=C(Cl)CCCC3=O)c(C)c21 [B-54] | 1 | 4 | – | –
12 | CC1(C)CC(C)(C)C(=O)C(C(=O)c2ccc3c(c2Cl)CCS3(=O)=O)C1=O [A-15, 4-chloro-5-(4,4,6,6-tetramethyl-1,3-dioxocyclohexan-2-yl)carbonyl-2,3-dihydrobenzothiophene-1,1-dioxide] | – | – | 1 | 3
13 | Cc1c(C(=O)C2=C(Sc3ccc(Cl)cc3)CCCC2=O)ccc2c1C(=O)C(C)(C)CS2(=O)=O [B-64, 3,3,5-trimethyl-6-[3-(4-chloro)thio-1-oxocyclohexan-2-yl]carbonylthiochroman-4-one-1,1-dioxide] | 2 | 5 | – | –
14 | O=C1CCCC(S(=O)(=O)c2ccccc2)=C1C(=O)c1ccc2c(c1Cl)CCS2(=O)=O [B-31] | 0 | 0 | – | –
15 | Cc1cc(C(=O)C2=C(S(=O)(=O)Cc3ccccc3)CCCC2=O)c(C)c2c1S(=O)(=O)CCC2OC(C)C (centres unmarked) [B-71] | 0 | 1 | – | –
16 | Cc1cc(C(=O)C2=C(SCc3ccccc3)CCCC2=O)c(C)c2c1S(=O)(=O)CCC2OC(C)C (centres unmarked) [B-70] | 0 | 0 | – | –
17 | O=C1CCCC(Cl)=C1C(=O)c1ccc2c(c1Cl)CCS2(=O)=O [B-1] | 0 | 0 | – | –
18 | CC(=O)c1ccc(SC2=C(C(=O)c3ccc4c(c3Cl)CCS4(=O)=O)C(=O)CCC2)cc1 [B-45, 4-chloro-5-[3-(4-acetylphenyl)thio-1-oxocyclohexan-2-yl]carbonyl-2,3-dihydrobenzothiophene-1,1-dioxide] | 0 | 0 | – | –
19 | CC1Cc2c(ccc(C(=O)C3=C(O)CCCC3=O)c2Cl)S1(=O)=O (centres unmarked) [A-17, 4-chloro-2-methyl-5-(1,3-dioxocyclohexan-2-yl)carbonyl-2,3-dihydrobenzothiophene-1,1-dioxide] | – | – | 0 | 1

Row | SMILES | Chemical injury, Transplanted paddy rice plant (dose 100 g/ha) | Chemical injury, Transplanted paddy rice plant (dose 200 g/ha) | Chemical injury, Transplanted paddy rice plant [1] | Chemical injury, Transplanted paddy rice plant [2]
20 | COC(=O)c1ccccc1SC1=C(C(=O)c2ccc3c(c2Cl)CCS3(=O)=O)C(=O)CCC1 [B-19] | 0 | 0 | – | –
21 | O=C1CCCC(SCc2ccccc2)=C1C(=O)c1ccc2c(c1Cl)CCS2(=O)=O [B-11] | 0 | 0 | – | –
22 | CCCS(=O)(=O)C1=C(C(=O)c2cc(C)c3c(c2C)/C(=N/OC)CCS3(=O)=O)C(=O)CCC1 [B-62, 4-methoxyimino-5,8-dimethyl-6-[3-(3-propyl)sulfonyl-1-oxocyclohexan-2-yl]carbonylthiochroman-1,1-1,1-dioxide] | 0 | 0 | – | –
23 | O=C1CCCC(Sc2ccccc2Cl)=C1C(=O)c1ccc2c(c1Cl)CCS2(=O)=O [B-17] | 0 | 0 | – | –
24 | CC1CC(=O)C(C(=O)c2ccc3c(c2Cl)CCS3(=O)=O)=C(Cl)C1 (centres unmarked) [B-25] | 0 | 1 | – | –
25 | Cc1cc(C(=O)C2=C(O)CCC(C)(C)C2=O)c(Cl)c2c1S(=O)(=O)CC2 [A-11, 4-chloro-7-methyl-5-(4,4-dimethyl-1,3-dioxocyclohexan-2-yl)carbonyl-2,3-dihydrobenzothiophene-1,1-dioxide] | – | – | 1 | 3
26 | O=C1CCCC(Sc2ccc(Br)cc2)=C1C(=O)c1ccc2c(c1Cl)CCS2(=O)=O [B-21] | 0 | 0 | – | –
27 | CC1CCC(O)=C(C(=O)c2ccc3c(c2Cl)CCS3(=O)=O)C1=O (centres unmarked) [A-7, 4-chloro-5-(4-methyl-1,3-dioxocyclohexan-2-yl)carbonyl-2,3-dihydrobenzothiophene-1,1-dioxide] | – | – | 1 | 2
28 | CS(=O)(=O)C1=C(C(=O)c2ccc3c(c2Cl)CCS3(=O)=O)C(=O)CCC1 [B-24] | 0 | 0 | – | –
29 | CS(=O)(=O)C1=C(C(=O)c2ccc3c(c2Cl)CCCS3(=O)=O)C(=O)CCC1 [B-80] | 0 | 0 | – | –
30 | CCS(=O)(=O)C1=C(C(=O)c2ccc3c(c2Cl)CCS3(=O)=O)C(=O)CCC1 [B-27] | 0 | 0 | – | –
31 | CC(C)S(=O)(=O)C1=C(C(=O)c2ccc3c(c2Cl)CCS3(=O)=O)C(=O)CCC1 [B-29] | 0 | 0 | – | –
32 | CO/N=C1\CCS(=O)(=O)c2ccc(C(=O)C3=C(Sc4ccccc4)CCCC3=O)c(C)c21 [B-74, 4-methoxyimino-5-methyl-6-(3-phenylthio-1-oxocyclohexan-2-yl)carbonylthiochroman-1,1-dioxide] | 0 | 0 | – | –
33 | O=C1CCCC(S(=O)(=O)Cc2ccccc2)=C1C(=O)c1ccc2c(c1Cl)CCS2(=O)=O [B-40] | 0 | 0 | – | –
34 | CO/N=C1\CCS(=O)(=O)c2c(C)cc(C(=O)C3=C(Sc4ccc(C)cc4)CCCC3=O)c(C)c21 [B-59, 4-methoxyimino-5,8-dimethyl-6-[3-(4-methylphenyl)thio-1-oxocyclohexan-2-yl]carbonylthiochroman-1,1-1,1-dioxide] | 0 | 0 | – | –
35 | Cc1ccccc1S(=O)(=O)C1=C(C(=O)c2ccc3c(c2Cl)CCS3(=O)=O)C(=O)CCC1 [B-32] | 0 | 0 | – | –
36 | CO/N=C1\CCS(=O)(=O)c2c(C)cc(C(=O)C3=C(S(=O)(=O)c4ccc(C)cc4)CCCC3=O)c(C)c21 [B-60, 4-methoxyimino-5,8-dimethyl-6-[3-(4-methylphenyl)sulfonyl-1-oxocyclohexan-2-yl]carbonylthiochroman-1,1-1,1-dioxide] | 0 | 0 | – | –
37 | CSC1=C(C(=O)c2ccc3c(c2Cl)CCS3(=O)=O)C(=O)CCC1 [B-7] | 0 | 0 | – | –
